Test results published in patent publication US6287794A, “Factor Vlla inhibitors” (Aventis Pharma Deutschland GmbH, priority 1998, dated 2001).
Non-standard residues stand in square brackets, D forms with d. Residues, ends and D or L forms follow the SMILES beside them. *: point of attachment. dPhe(4-guanidino) = N=C(N)Nc1ccc(C[C@@H](N)C(=O)O)cc1; Phe(4-amidino) = N=C(N)c1ccc(C[C@H](N)C(=O)O)cc1; d(hArg) = N=C(N)NCCCC[C@@H](N)C(=O)O; Cha = N[C@@H](CC1CCCCC1)C(=O)O; Agb = N=C(N)NCC[C@H](N)C(=O)O; Dab = NCC[C@H](N)C(=O)O; Alloc = C=CCOC(=O)*; Bn = c1ccc(C*)cc1; Acm = CC(=O)NC*

Molecular target: T1, human factor VIIa and TF (Homo sapiens, UniProt P08709)
T1 construct: human factor VIIa and TF
T1 sequence (P08709 213-466 limits assumed): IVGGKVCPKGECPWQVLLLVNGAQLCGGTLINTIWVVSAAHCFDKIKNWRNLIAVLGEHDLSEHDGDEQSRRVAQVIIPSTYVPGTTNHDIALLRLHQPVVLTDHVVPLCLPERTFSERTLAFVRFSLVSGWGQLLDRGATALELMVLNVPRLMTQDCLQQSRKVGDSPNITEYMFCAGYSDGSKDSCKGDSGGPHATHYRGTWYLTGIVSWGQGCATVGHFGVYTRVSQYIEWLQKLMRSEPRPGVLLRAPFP
T1 sequence (P08709 61-212 limits assumed): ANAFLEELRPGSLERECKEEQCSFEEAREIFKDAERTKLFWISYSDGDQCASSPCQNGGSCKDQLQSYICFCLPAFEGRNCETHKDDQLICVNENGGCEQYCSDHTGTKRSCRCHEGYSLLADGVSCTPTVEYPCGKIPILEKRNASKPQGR
T1 sequence (P13726 33-295 partner): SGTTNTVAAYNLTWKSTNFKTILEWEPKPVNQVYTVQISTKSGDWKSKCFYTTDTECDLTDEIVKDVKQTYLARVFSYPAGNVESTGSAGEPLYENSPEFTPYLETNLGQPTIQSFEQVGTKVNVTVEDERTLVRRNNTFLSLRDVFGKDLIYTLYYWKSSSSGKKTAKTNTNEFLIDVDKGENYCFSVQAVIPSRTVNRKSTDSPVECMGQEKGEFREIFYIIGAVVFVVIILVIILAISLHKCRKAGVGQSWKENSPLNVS
Assay: Determination of Ki for FVIIa inhibition (chromogenic assay, substrate S-2288)
Assay type: biochemical
Conditions: human factor VIIa 5 nM and TF 10 nM, S-2288 500 μM, 25° C., 15 minute preincubation, pH 8.15; read-out: Factor VIIa inhibitory activities Ki
Description: The inhibitory activity (Ki) of each compound towards […] activity was determined using a chromogenic assay essentially as described previously. J. A. Ostrem, F. Al-Obeidi, P. Safar, A. Safarova, S. K. Stringer, M. Patek, M. T. Cross, J. Spoonamore, J. C. LoCascio, P. Kasireddy, D. S. Thorpe, N. Sepetov, M. Lebi, P. Wildgoose, P. Strop, "Discovery of a novel, potent, and specific family of factor Xa inhibitors via combinatorial chemistry". Biochemistry 37 (1998) 1053-1059. Kinetic assays were conducted at 25° C. in half-area microtiter plates (Costar Corp., Cambridge, Mass.) using a kinetic plate reader (Molecular Devices Spectramax 250). A typical assay consisted of 25 μl of human factor VIIa and TF (5 nM and 10 nM, respective final concentration) combined with 40 μl of inhibitor dilutions in 10% DMSO/TBS-PEG buffer (50 mM Tris, 15 mM NaCl, 5 mM CaCl2; 0.05% PEG 8k, pH 8.15). Following a 15 minute preincubation period, the assay was initiated by the addition of 35 μl of the chromogenic substrate S-2288 (D-Ile-Pro-Arg-pNA, Pharmacia Hepar Inc, 500 μM final concentration.). The apparent inhibition constants were calculated from the slope of the progress curves during the linear part of the time course, typically between 1 and 5 min following addition of substrate to the assay. The true Ki was subsequently determined for each compound by correcting for substrate concentration (S) and the Km using the formula Ki=Ki app/(1+(S)/Km). I. H. Segal, Enzyme Kinetics, pp 100-125 (John Wiley & Sons, N.Y., 1975).

Row | Ki | Structure (SMILES)
1 | 0.35 µM | C=CCOC(=O)N[C@@H](Cc1ccc(C(=N)N)cc1)C(=O)N[C@@H](CCC(=O)O)C(=O)N[C@@H](CC(N)=O)C(=O)NCCc1ccc(S(N)(=O)=O)cc1 [Alloc--pAph--Glu--Asn-2-(4-sulfamoylphenyl)ethylamide]
2 | 0.024 µM | C=CCOC(=O)N[C@@H](Cc1ccc(C(=N)N)cc1)C(=O)N[C@@H](CCC(=O)O)C(=O)N[C@@H](CC(N)=O)C(=O)NCCC(c1ccccc1)c1ccccc1 [Alloc--pAph--Glu--Asn-3,3-diphenylpropylamide]
3 | 0.12 µM | C=CCOC(=O)N[C@@H](Cc1ccc(C(=N)N)cc1)C(=O)N[C@@H](CCC(=O)O)C(=O)N[C@@H](CC(N)=O)C(=O)NCc1ccc2c(c1)OCO2 [Alloc--pAph--Glu--Asn-3,4-methylenedioxybenzylamide]
4 | 0.033 µM | C=CCOC(=O)N[C@@H](Cc1ccc(C(=N)N)cc1)C(=O)N[C@@H](CCC(=O)O)C(=O)N[C@@H](CC(N)=O)C(=O)NCc1cc(C(F)(F)F)cc(C(F)(F)F)c1 [Alloc--pAph--Glu--Asn-3,5-bistrifluoromethylbenzylamide]
5 | 0.11 µM | C=CCOC(=O)N[C@@H](Cc1ccc(C(=N)N)cc1)C(=O)N[C@@H](CCC(=O)O)C(=O)N[C@@H](CC(N)=O)C(=O)NCCC(C)C [Alloc--pAph--Glu--Asn-3-methylbutylamide]
6 | 0.15 µM | C=CCOC(=O)N[C@@H](Cc1ccc(C(=N)N)cc1)C(=O)N[C@@H](CCC(=O)O)C(=O)N[C@@H](CC(N)=O)C(=O)NCC1CCCCC1 [Alloc--pAph--Glu--Asn--NH--CH2 --Chx, Alloc-pAph-Glu-Asn-NH--CH2 -Chx]
7 | 12 µM | C=CCOC(=O)N[C@@H](Cc1ccc(C(=N)N)cc1)C(=O)N[C@@H](CCC(=O)O)C(=O)N[C@H](CCCNC(=N)N)C(=O)N[C@@H](CC1CCCCC1)C(N)=O [Alloc--pAph--Glu--D--Arg--Cha--NH2] (Alloc-[Phe(4-amidino)]E[dR][Cha]-NH2)
8 | 11.3 µM | C=CCOC(=O)N[C@@H](Cc1ccc(C(=N)N)cc1)C(=O)N[C@@H](CCC(=O)O)C(=O)N[C@H](Cc1ccc(NC(=N)N)cc1)C(=O)N[C@@H](CC1CCCCC1)C(N)=O [Alloc--pAph--Glu--D--Phe(4-guanidino)--Cha--NH2] (Alloc-[Phe(4-amidino)]E[dPhe(4-guanidino)][Cha]-NH2)
9 | 0.15 µM | C=CCOC(=O)NCC[C@H](NC(=O)[C@H](CCC(=O)O)NC(=O)[C@H](Cc1ccc(C(=N)N)cc1)NC(=O)OCC=C)C(=O)N[C@@H](CC1CCCCC1)C(N)=O [Alloc--pAph--Glu--Dab(Alloc)--Cha--NH2] (Alloc-[Phe(4-amidino)]E[Dab](Alloc)[Cha]-NH2)
10 | 0.055 µM | C=CCOC(=O)N[C@@H](Cc1ccc(C(=N)N)cc1)C(=O)N[C@@H](CCC(=O)O)C(=O)N[C@@H](CCN)C(=O)N[C@@H](CC1CCCCC1)C(N)=O [Alloc--pAph--Glu--Dab--Cha--NH2, Alloc-pAph-Glu-Dab-Cha-NH2] (Alloc-[Phe(4-amidino)]E[Dab][Cha]-NH2)
11 | 0.38 µM | C=CCOC(=O)N[C@@H](Cc1ccc(C(=N)N)cc1)C(=O)N[C@@H](CCC(=O)O)C(=O)N[C@@H](CCN)C(=O)NCCc1ccccc1 [Alloc--pAph--Glu--Dab--NH--(CH2)2 --Ph, Alloc-pAph-Glu-Dab-NH--CH2 --CH2 --Ph]
12 | 0.19 µM | C=CCOC(=O)N[C@@H](Cc1ccc(C(=N)N)cc1)C(=O)N[C@@H](CCC(=O)O)C(=O)N[C@@H](CCNC(C)=N)C(=O)N[C@@H](CC1CCCCC1)C(N)=O [Alloc--pAph--Glu--Dab[--C(=NH)--CH3]--Cha--NH2]
13 | 0.26 µM | C=CCOC(=O)N[C@@H](Cc1ccc(C(=N)N)cc1)C(=O)N[C@@H](CCC(=O)O)C(=O)N[C@@H](CNC(=N)N)C(N)=O [Alloc--pAph--Glu--Dap[--C(=NH)--NH2]--NH2]
14 | 0.12 µM | C=CCOC(=O)N[C@@H](Cc1ccc(C(=N)N)cc1)C(=O)N[C@@H](CCC(=O)O)C(=O)NCC(=O)N[C@@H](CC1CCCCC1)C(N)=O [Alloc--pAph--Glu--Gly--Cha--NH2, Alloc-pAph-Glu-Gly-Cha-NH2] (Alloc-[Phe(4-amidino)]EG[Cha]-NH2)
15 | 0.14 µM | C=CCOC(=O)N[C@@H](Cc1ccc(C(=N)N)cc1)C(=O)N[C@@H](CCC(=O)O)C(=O)N[C@@H](Cc1c[nH]cn1)C(=O)N[C@@H](CC1CCCCC1)C(N)=O [Alloc--pAph--Glu--His--Cha--NH2] (Alloc-[Phe(4-amidino)]EH[Cha]-NH2)

Continued, compound first:

Row | Structure (SMILES) | Ki
16 | C=CCOC(=O)N[C@@H](Cc1ccc(C(=N)N)cc1)C(=O)N[C@@H](CCC(=O)O)C(=O)N[C@@H](CC(N)=O)C(=O)NCc1ccc2ccccc2c1 [Alloc--pAph--Glu--Asn-2-naphthylmethylamide] | 0.027 µM
17 | C=CCOC(=O)N[C@@H](Cc1ccc(C(=N)N)cc1)C(=O)N[C@@H](CCC(=O)O)C(=O)N[C@@H](CC(N)=O)C(=O)NCC1CCCO1 (some centres unmarked) [Alloc--pAph--Glu--Asn-2-tetrahydrofuranylmethylamide] | 0.17 µM
18 | C=CCOC(=O)N[C@@H](Cc1ccc(C(=N)N)cc1)C(=O)N[C@@H](CCC(=O)O)C(=O)N[C@@H](CC(N)=O)C(=O)NCc1ccc(Cl)c(Cl)c1 [Alloc--pAph--Glu--Asn-3,4-dichlorobenzylamide] | 0.026 µM
19 | C=CCOC(=O)N[C@@H](Cc1ccc(C(=N)N)cc1)C(=O)N[C@@H](CCC(=O)O)C(=O)N[C@@H](CC(N)=O)C(=O)NCCCc1ccccc1 [Alloc--pAph--Glu--Asn-3-phenylpropylamide] | 0.026 µM
20 | C=CCOC(=O)N[C@@H](Cc1ccc(C(=N)N)cc1)C(=O)N[C@@H](CCC(=O)O)C(=O)N[C@@H](CC(N)=O)C(=O)NCc1ccc(N(C)C)cc1 [Alloc--pAph--Glu--Asn-4-dimethylaminobenzylamide] | 0.11 µM
21 | C=CCOC(=O)N[C@@H](Cc1ccc(C(=N)N)cc1)C(=O)N[C@@H](CCC(=O)O)C(=O)N[C@@H](CC(N)=O)C(=O)NCc1ccc(OC)cc1 [Alloc--pAph--Glu--Asn-4-methoxybenzylamide] | 0.083 µM
22 | C=CCOC(=O)N[C@@H](Cc1ccc(C(=N)N)cc1)C(=O)N[C@@H](CCC(=O)O)C(=O)N[C@@H](CC(N)=O)C(=O)NC1c2ccccc2-c2ccccc21 [Alloc--pAph--Glu--Asn-9-fluorenylamide] | 0.023 µM
23 | C=CCOC(=O)N[C@@H](Cc1ccc(C(=N)N)cc1)C(=O)N[C@@H](CCC(=O)O)C(=O)N[C@@H](CC(N)=O)C(=O)N[C@@H](CC1CCCCC1)C(N)=O [Alloc--pAph--Glu--Asn--Cha--NH2, Alloc-pAph-Glu-Asn-Cha-NH2] (Alloc-[Phe(4-amidino)]EN[Cha]-NH2) | 0.021 µM
24 | C=CCOC(=O)N[C@@H](Cc1ccc(C(=N)N)cc1)C(=O)N[C@@H](CCC(=O)O)C(=O)N[C@@H](CC(N)=O)C(=O)N(Cc1ccccc1)Cc1ccccc1 [Alloc--pAph--Glu--Asn-N,N-dibenzylamide] | 0.41 µM
25 | C=CCOC(=O)N[C@@H](Cc1ccc(C(=N)N)cc1)C(=O)N[C@@H](CCC(=O)O)C(=O)N[C@@H](CC(N)=O)C(=O)N(C)Cc1cccc2ccccc12 [Alloc--pAph--Glu--Asn-N-methyl-N-(1-naphthylmethyl)amide] | 1.7 µM
26 | C=CCOC(=O)N[C@@H](Cc1ccc(C(=N)N)cc1)C(=O)N[C@@H](CCC(=O)O)C(=O)N[C@@H](CSCNC(C)=O)C(=O)N[C@@H](CC1CCCCC1)C(N)=O [Alloc--pAph--Glu--Cys(Acm)--Cha--NH2] (Alloc-[Phe(4-amidino)]EC(Acm)[Cha]-NH2) | 0.12 µM
27 | C=CCOC(=O)N[C@@H](Cc1ccc(C(=N)N)cc1)C(=O)N[C@@H](CCC(=O)O)C(=O)N[C@@H](CSCc1ccccc1)C(=O)N[C@@H](CC1CCCCC1)C(N)=O [Alloc--pAph--Glu--Cys(Bzl)--Cha--NH2] (Alloc-[Phe(4-amidino)]EC(Bn)[Cha]-NH2) | 0.026 µM
28 | C=CCOC(=O)N[C@@H](Cc1ccc(C(=N)N)cc1)C(=O)N[C@@H](CCC(=O)O)C(=O)N[C@@H](CSC)C(=O)N[C@@H](CC1CCCCC1)C(N)=O [Alloc--pAph--Glu--Cys(Me)--Cha--NH2] (Alloc-[Phe(4-amidino)]EC(Me)[Cha]-NH2) | 0.2 µM
29 | C=CCOC(=O)N[C@@H](Cc1ccc(C(=N)N)cc1)C(=O)N[C@@H](CCC(=O)O)C(=O)N[C@H](CCCCNC(=N)N)C(=O)N[C@@H](CC1CCCCC1)C(N)=O [Alloc--pAph--Glu--D--Lys[--C(=NH)--NH2]--Cha--NH2] (Alloc-[Phe(4-amidino)]E[d(hArg)][Cha]-NH2) | 22 µM
30 | C=CCOC(=O)N[C@@H](Cc1ccc(C(=N)N)cc1)C(=O)N[C@@H](CCC(=O)O)C(=O)N[C@@H](CCNC(=N)N)C(=O)N[C@@H](CC1CCCCC1)C(N)=O [Alloc--pAph--Glu--Dab[--C(=NH)--NH2]--Cha--NH2] (Alloc-[Phe(4-amidino)]E[Agb][Cha]-NH2) | 0.012 µM
31 | C=CCOC(=O)N[C@@H](Cc1ccc(C(=N)N)cc1)C(=O)N[C@@H](CCC(=O)O)C(=O)N[C@@H](CNC(=N)N)C(=O)N[C@@H](Cc1ccc(C2(c3ccccc3)SCCS2)cc1)C(N)=O [Alloc--pAph--Glu--Dap[--C(=NH)--NH2]--Phe[4-C(--S--(CH2)2 --S--)--Ph]--NH2] | 0.015 µM
32 | C=CCOC(=O)N[C@@H](Cc1ccc(C(=N)N)cc1)C(=O)N[C@@H](CCC(=O)O)C(=O)N[C@@H](CCC(N)=O)C(N)=O [Alloc--pAph--Glu--Gln--NH2] | 1.5 µM
